{"source": "patent US5158940A", "about": "(priority 1990, dated 1992)", "key": {"[1]": {"system": "reverse transcriptase enzyme", "conditions": "in vitro; JAMA 258 p. 1347-51 (1987); cited from earlier work"}, "parasitic infections": {"system": "parasitic infections", "conditions": "one gram bolus parenterally once per week for six weeks, total six grams; cited from earlier work"}, "[2]": {"conditions": "in vivo; cited from earlier work"}, "[3]": {"system": "cytoplasmic and intranuclear enzymes", "conditions": "Cancer Res. 47 p. 4694-8 (1987) and J. Clin. Onc. 7 p. 499-508 (1989); cited from earlier work"}, "[4]": {"system": "human immunodeficiency virus (HIV)", "conditions": "in vitro; JAMA 258 p. 1347-51 (1987); cited from earlier work"}, "rheumatoid arthritis": {"system": "rheumatoid arthritis", "format": "in vivo, person", "description": "A person was initially diagnosed in 1975 with polyarthritis and an elevated serum rheumatoid factor level. Since then, the patient had required almost uninterrupted treatment with either supraphysiologic doses of steroid or remission-inducing agents. These included hydroxycloroquine, gold salts, cytoxan and most recently, penicillamine together with prednisone.\nPrior to initiating suramin therapy, penicillamine and prednisone were discontinued and the patient was placed on physiologic replacement doses of hydrocortisone. […] Their serum rheumatoid factor titer was 1:2560. Serum antinuclear antibodies were absent and both anti-DNA screen and LE cell test were negative."}, "various growth factors": {"system": "various growth factors", "conditions": "in vitro; J. Cellular Physiology 132 p. 143-8 (1987); cited from earlier work"}, "[5]": {"conditions": "nine months after initial start, no suramin after third cycle at six months"}, "[6]": {"conditions": "treatment period plus three months afterwards without suramin"}}, "note": "Counter-ions that a name gives are not always drawn."}
{"smiles": "Cc1ccc(C(=O)Nc2ccc(S(=O)(=O)O)c3cc(S(=O)(=O)O)cc(S(=O)(=O)O)c23)cc1NC(=O)c1cccc(NC(=O)Nc2cccc(C(=O)Nc3cc(C(=O)Nc4ccc(S(=O)(=O)O)c5cc(S(=O)(=O)O)cc(S(=O)(=O)O)c45)ccc3C)c2)c1", "note": "[Suramin, hexasodium salt of 8,8'-(carbonyl-bis(imino-3,1-phenylenecarbonylimino(4-methyl-3,1-phenylene)carbonylimo))bis-1,3,5-naphthalenetrisulfonic acid]", "values": [{"measurement": "ability to inhibit the reverse transcriptase enzyme", "setting": "[1]", "value": "inhibit the reverse transcriptase enzyme"}, {"measurement": "effectiveness for treating parasitic infections", "setting": "parasitic infections", "value": "generally effective for treating parasitic infections"}, {"measurement": "plasma half-life", "setting": "[2]", "value": "45 to 55", "unit": "days"}, {"measurement": "binding to a variety of cytoplasmic and intranuclear enzymes", "setting": "[3]", "value": "bind to a variety of cytoplasmic and intranuclear enzymes"}, {"measurement": "ability to revert the cytopathic effect of HIV", "setting": "[4]", "value": "revert the cytopathic effect of human immunodeficiency virus (HIV) in vitro"}, {"measurement": "formal rheumatologic evaluation (inflammatory joint disease, synovial proliferation)", "setting": "rheumatoid arthritis; at the end of therapy", "value": "virtually no inflammatory joint disease with only minimal synovial proliferation in the ulnar carpal region of their right wrist"}, {"measurement": "joint abnormalities in follow up hand photograph", "setting": "rheumatoid arthritis; follow up hand photograph", "value": "failed to show any significant change in their minimal joint abnormalities"}, {"measurement": "hematologic, hepatic or renal toxicity", "setting": "rheumatoid arthritis; in vivo", "value": "did not experience any significant hematologic, hepatic or renal toxicity"}, {"measurement": "size of rheumatoid nodules", "setting": "rheumatoid arthritis; initially documented after three months, more pronounced at five months", "value": "regression in the size of their multiple rheumatoid nodules"}, {"measurement": "arthritic symptoms at nine months", "setting": "rheumatoid arthritis; [5]", "value": "continued to remain without arthritic symptoms"}, {"measurement": "size of remaining rheumatoid nodules", "setting": "rheumatoid arthritis; [5]", "value": "remained unchanged"}, {"measurement": "disappearance of rheumatoid nodules", "setting": "rheumatoid arthritis; start of third cycle at five months", "value": "complete disappearance of as many as a third"}, {"measurement": "arthritic symptoms", "setting": "rheumatoid arthritis; [6]", "value": "improvement in their arthritic symptoms"}, {"measurement": "synovial swelling", "setting": "rheumatoid arthritis; [6]", "value": "decreased synovial swelling"}, {"measurement": "ability to inhibit the activity of various growth factors", "setting": "various growth factors", "value": "inhibit the activity of various growth factors in vitro"}]}
